Article PMC12316928, “Synthesis and evaluation of novel thiohydantoin derivatives for antidiabetic activity using in silico in vitro and in vivo methods” (Scientific Reports, 2025)
Values after ≈ are worked out from the molar mass of the structure shown. Values joined by “and” are separate entries in the source; they are usually repeats but may differ in a detail not shown here. Equal entries are not always repeated. “Also recorded” adds a separate entry of the source. Where two headings read alike, the source gives them in different places.

Columns and labels:
α-amylase = molecular target: T1, α-amylase (Sus scrofa, UniProt P00690); test: α-Amylase inhibitory activity assay (DNSA method); format: biochemical
T1 sequence (P00690 16-511): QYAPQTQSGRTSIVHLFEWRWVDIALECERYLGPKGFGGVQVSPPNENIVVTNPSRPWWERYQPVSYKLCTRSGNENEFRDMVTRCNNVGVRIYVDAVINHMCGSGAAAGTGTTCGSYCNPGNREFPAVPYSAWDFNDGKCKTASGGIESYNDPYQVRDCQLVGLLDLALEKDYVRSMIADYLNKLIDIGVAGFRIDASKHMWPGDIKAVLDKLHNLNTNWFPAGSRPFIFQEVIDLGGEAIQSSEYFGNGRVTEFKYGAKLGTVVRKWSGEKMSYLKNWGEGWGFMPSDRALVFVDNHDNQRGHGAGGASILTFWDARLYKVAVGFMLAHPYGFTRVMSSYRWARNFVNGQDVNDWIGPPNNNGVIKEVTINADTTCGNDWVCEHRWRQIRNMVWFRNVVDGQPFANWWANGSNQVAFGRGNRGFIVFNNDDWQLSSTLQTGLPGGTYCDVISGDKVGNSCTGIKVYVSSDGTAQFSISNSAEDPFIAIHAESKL
Method: The inhibitory potential of the synthesized derivatives against α-amylase was determined using the DNSA (3,5-dinitrosalicylic acid) colorimetric method, as reported by Bernfeld[37]. The α-amylase enzyme (from Sigma-Aldrich) was prepared in 20 mM sodium phosphate buffer (pH 6.9). […] After incubation, 100 µL of DNSA reagent was added, and the mixture was heated at 85 °C for 15 min. The reaction was stopped by cooling, and the absorbance was measured at 595 nm. A blank control was prepared to adjust background absorbance, and the percentage inhibition was calculated.

[1] = tested on: STZ-induced diabetic rats; test: Physiological parameters (lipid profile); format: in vivo, Sprague Dawley rats; conditions: Fig. 1
Method: (§1) Diabetes will be induced in rats (n = 6 per group) by a single intraperitoneal injection of 60-100 mg/kg body weight (BW) streptozotocin dissolved in normal saline. After 5 days of streptozotocin injection, the tail vein blood will be collected to determine the fasting blood glucose (FBG) level. Only rats with FBG over 200 mg/dl will be considered diabetic and used for further experimentation.
Animals will be sacrificed after […] of treatment and parameters including LDL, triglycerides, HDL cholesterol, and glucose will be determined by using KONELAB SYSTEM (Thermo Fisher Scientific, Finland) according to manufacturer’s guidelines.

[2] = tested on: STZ-induced diabetic rats; test: Effect on FBG, body weight and HbA1C over 6 weeks; format: in vivo, Sprague Dawley rats; set-up: % Reduction in FBG: concentration or dose not given beside the values
Method: as §1
Diabetic Rats (n = 6 per group) will be randomly assigned to groups of six animals each in order to examine the impact of synthetic derivatives on FBG level, BW, and HbA1C. The course of treatment will last for six weeks. At the beginning of the experiment and at weekly intervals during the first 42 days of therapy, the FBG level and BW will be measured. Rats will be denied food for 12 h while fasting, but they will have unrestricted access to water. Commercial glucose oxidase kits will be used to measure the blood glucose level. Blood 7 will be collected through cardiac puncture at the end of study period and levels of HbA1C will be determined. Metformin will be used as standard for comparison purpose.

[3] = tested on: STZ-induced diabetic rats; test: Fasting blood glucose and oral glucose tolerance test (OGTT); format: in vivo, Sprague Dawley rats; conditions: for OGTT (after 120 min): 120 min after glucose 2.0 g/kg; for Fasting blood glucose: Table 7, mean ± SD, 5 rats per group; for FBG and OGTT reduction in words: compared to diabetic control
Method: […] After 5 days of streptozotocin injection, the tail vein blood will be collected to determine the fasting blood glucose (FBG) level. Only rats with FBG over 200 mg/dl will be considered diabetic and used for further experimentation.
This assay will be performed in animals after fasting for an overnight (12 h). Then, rats will receive a bolus of glucose (2.0 g/kg body weight) followed by test molecule or control and plasma glucose will be measured from blood collected from tail vein at 0, 30, 60, 90 and 120 min after glucose administration. Plasma glucose levels will be analyzed using commercially available glucometer kits[40].

[4] = molecular target: T2, α-glucosidase (EC3.2.1.20) (Saccharomyces cerevisiae, UniProt P53341); test: α-Glucosidase inhibitory activity assay; format: biochemical; conditions: for inhibition at 200 µg/mL: read-out: %Inhibition (200 µg/ml) alpha glucosidase
T2 construct: purchased Sigma-Aldrich
T2 sequence (P53341 whole entry): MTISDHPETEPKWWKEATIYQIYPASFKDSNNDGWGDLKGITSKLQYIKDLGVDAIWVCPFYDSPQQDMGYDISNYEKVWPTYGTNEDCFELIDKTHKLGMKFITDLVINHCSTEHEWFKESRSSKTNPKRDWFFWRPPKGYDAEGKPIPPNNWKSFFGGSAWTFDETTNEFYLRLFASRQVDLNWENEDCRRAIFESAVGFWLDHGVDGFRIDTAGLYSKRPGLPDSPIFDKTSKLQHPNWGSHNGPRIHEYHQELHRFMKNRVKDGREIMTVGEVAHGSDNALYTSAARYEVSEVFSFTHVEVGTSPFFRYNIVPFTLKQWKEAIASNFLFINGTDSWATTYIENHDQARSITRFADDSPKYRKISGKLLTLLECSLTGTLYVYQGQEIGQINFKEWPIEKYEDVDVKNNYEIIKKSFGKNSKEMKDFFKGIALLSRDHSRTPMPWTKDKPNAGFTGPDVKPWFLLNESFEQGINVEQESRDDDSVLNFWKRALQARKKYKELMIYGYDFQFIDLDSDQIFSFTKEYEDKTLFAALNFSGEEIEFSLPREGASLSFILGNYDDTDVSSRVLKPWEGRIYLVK
Method: The ability of the synthesized compounds to inhibit α-glucosidase was determined as per the method described by[35]. […] After incubation at 37 °C for 10 min, the reaction was initiated by adding 25 µL of substrate (4 mM) and further incubating at 37 °C for 20 min. The absorbance was measured at 405 nm.

[5] = DPPH free radical scavenging assay
Method: The antioxidant activity of synthesized compounds was evaluated using the DPPH free-radical scavenging assay, following the methodology outlined by[34]. This assay is based on the principle that the stable free radical DPPH undergoes a color change from deep purple to yellow upon reduction, indicating hydrogen donation from antioxidant compounds. Different concentrations (3.12, 6.25, 12.5, 25, 50, 100, and 200 µg/mL) of test compounds were prepared in methanol. A 200 µL aliquot of each concentration was mixed with 50 µL of freshly prepared DPPH solution (0.659 mM). The reaction mixtures were incubated at room temperature for 20 min in the dark. Absorbance was recorded at 510 nm using an ELISA microplate reader. Trolox was employed as the reference antioxidant, and the percentage of inhibition was calculated using the following equation:
% Inhibition = [(A0 − A1)/A0] × 100.
Where A0 is the absorbance of the control, and A1 is the absorbance of the sample[34].

3T3 fibroblast cell line = test: Cytotoxicity MTT assay; format: cell-based; conditions: for IC₅₀ cytotoxicity MTT: 48 h, Mean ± SD, n = 3
Method: (§2) The cytotoxic effects of the selected compounds were evaluated against the 3T3 fibroblast cell line (Sigma-Aldrich, product no. 90020107) using the MTT (3-(4,5-dimethylthiazol-2-yl)−2,5-diphenyl tetrazolium bromide) assay, following the protocol established by Mosmann[38]. A cell suspension containing 1 × 10⁵ cells per well was seeded into a 96-well plate and incubated at 37 °C with 5% CO₂ for 48 h. The cells were then treated with different concentrations of test compounds (4, 16, 63, 250, and 1000 µg/mL, dissolved in DMSO) and incubated for an additional 48 h. Following incubation, 180 µL of MTT solution (5 mg/mL in PBS) was added to each well and incubated for 4 h. The formazan crystals formed were solubilized, and absorbance was measured at 570 nm using an ELISA reader. Celecoxib was used as a positive control.

Cytotoxicity MTT assay = format: cell-based; conditions: mouse, 3T3 fibroblast cells, 48 h, Mean ± SD, n = 3, read-out: IC₅₀ cytotoxicity MTT
Method: as §2

| Structure (SMILES) | OGTT (after 120 min) [3] [mg/dL] | Fasting blood glucose [3] [mg/dL] | FBG and OGTT reduction in words [3] | inhibition at 200 µg/mL [4] [%] | DPPH free radical scavenging % inhibition ([5]; 3.12 µg/mL) [%] | DPPH free radical scavenging % inhibition ([5]; 6.25 µg/mL) [%] | DPPH free radical scavenging % inhibition ([5]; 12.5 µg/mL) [%] | DPPH free radical scavenging % inhibition ([5]; 25 µg/mL) [%] | DPPH free radical scavenging % inhibition ([5]; 50 µg/mL) [%] | DPPH free radical scavenging % inhibition ([5]; 100 µg/mL) [%] | DPPH free radical scavenging % inhibition ([5]; 200 µg/mL) [%] | alpha-amylase inhibition in words (α-amylase) | Cytotoxicity category (3T3 fibroblast cell line) | IC₅₀ cytotoxicity MTT (3T3 fibroblast cell line) [µg/mL] | IC50 at 48 h (Cytotoxicity MTT assay) [µg/mL] | alpha-glucosidase inhibition in words [4] | also measured |
| --- | --- | --- | --- | --- | --- | --- | --- | --- | --- | --- | --- | --- | --- | --- | --- | --- | --- |
| C[C@H]1O[C@H](O[C@H]2[C@H](O)[C@@H](O)[C@@H](O[C@H]3[C@H](O)[C@@H](O)C(O)O[C@@H]3CO)O[C@@H]2CO)[C@H](O)[C@@H](O)[C@@H]1N[C@H]1C=C(CO)[C@@H](O)[C@H](O)[C@H]1O (some centres unmarked) [Acarbose, reference compound] | – | – | – | – | – | – | – | – | – | – | – | – | – | – | – | – | %Inhibition alpha amylase (α-amylase; positive control Acarbose 50 µg/ml, Mean ± SD): 92.23 ± 1.08% |
| CC(=O)Nc1ccc(S(=O)(=O)N2CC(=O)NC2=S)cc1 [FP1, N-[4-(4-oxo-2-sulfanylideneimidazolidine-1-sulfonyl)phenyl]acetamide] | 310.3 ± 10.7 | 245.9 ± 8.2 | mild but significant activity | 45.7 ± 1.12 | 12.5 ± 1.1 | 24.7 ± 1.8 | 38.1 ± 2.3 | 51.5 ± 2.7 | 58.9 ± 2.9 | 63.4 ± 3.0 | 67.3 ± 3.2 | lack of inhibition | negligible cytotoxicity; also recorded: Non-toxic | > 1000 ± 0.0 | > 900 | – | lipid profile effect in words [1]: marginal effects; BW (Day 0) ([2]; Day 0, baseline): 217.5 ± 8.3 g; FBG (Day 0) ([2]; Day 0, baseline): 282.8 ± 10.3 mg/dL; % Change in BW ([2]; Day 0 to Day 42): −8.7%; % Reduction in FBG ([2]; Day 0 to Day 42): 17.6%; BW (Day 42) ([2]; Day 42 of treatment): 198.6 ± 7.8 g; FBG (Day 42) ([2]; Day 42 of treatment): 232.9 ± 9.7 mg/dL; HbA1C ([2]; end of 6-week treatment): 8.1% and 8.1 ± 0.4%; IC₅₀ (concentration required to inhibit 50% of DPPH free radicals) [5]: 76.5 ± 2.9 µg/mL |
| Cc1ccc(S(=O)(=O)N2CC(=O)NC2=S)cc1 [FP3, 1-(4-methylbenzene-1-sulfonyl)−2-sulfanylideneimidazolidin-4-one] | 320.8 ± 11.3 | 255.7 ± 9.0 | minor reductions | – | 9.2 ± 0.9 | 18.5 ± 1.4 | 27.9 ± 1.8 | 38.3 ± 2.1 | 45.7 ± 2.3 | 51.2 ± 2.5 | 55.8 ± 2.7 | lack of inhibition | Low cytotoxicity | – | 722 ± 15.3 (≈ 2670 µM) | inactive | inhibition at 200 µg/mL ([4]; sample concentration 200 µg/ml, Mean ± SD): 29.4 ± 1.08% |
| O=C1CN(S(=O)(=O)c2cc(C(=O)O)ccc2Cl)C(=S)N1 [FP7, 4-chloro-3-(4-oxo-2-sulfanylideneimidazolidine-1-sulfonyl)benzoic acid] | 325.0 ± 11.6 | 258.2 ± 9.4 | minor reductions | 27.3 ± 0.91 | 7.6 ± 0.7 | 14.8 ± 1.0 | 21.5 ± 1.4 | 30.2 ± 1.8 | 39.5 ± 2.0 | 43.7 ± 2.3 | 47.2 ± 2.5 | lack of inhibition | negligible cytotoxicity; also recorded: Non-toxic | > 1000 ± 0.0 | > 900 | inactive | – |
